Earlier results on one compound are cited in patent US20070111953A1, “Compositions to improve the bioavailability of polymethoxyflavones and tocotrienols for treatment of cardiovascular disease” (KGK Synergize, Inc., priority 2005, published 2007).

The series concerns acetylated LDL metabolism.

In the case of `COc1ccc(-c2cc(=O)c3c(OC)c(OC)c(OC)c(OC)c3o2)cc1OC` [nobiletin], the “Inhibition of acetylated LDL metabolism” value was 50-72%.
